{
  "source": "patent US20060142287A1",
  "about": "“Use of a combination of dppe with other chemotherapeutic agents for the treatment of breast cancer” (priority 2002, published 2006)",
  "system": "patients with metastatic and/or recurrent breast cancer",
  "test": "Phase III clinical trial of DPPE/doxorubicin versus doxorubicin alone, overall survival",
  "type": "in vivo, human",
  "description": "In the treatment of stage I or II breast cancer, the diphenyl compound preferably is used in an amount of about 3 to about 10 mg/kg of patient, administered intravenously over a period of about 30 to about 90 minutes prior to administration of the chemotherapeutic agent(s) and continuing for the period of administration of the chemotherapeutic agent(s). In the specific Phase III clinical trial described herein conducted on patients with metastatic and/or recurrent breast cancer, there was employed 5.3 mg/kg of DPPE in the form of the base (equivalent to 6 mg/kg of DPPE in the form of its hydrochloride), administered intravenously as an aqueous solution thereof over 80 minutes, with the last twenty minutes being accompanied by infusion of the specific chemotherapeutic agent.\nThe chemotherapy agent active in breast cancer which is employed herein preferably is used in a total amount of about 50 to about 75 mg/M^2 of patient for doxorubicin or epirubicin, about 175 to about 225 mg/M^2 for Taxol and about 75 to about 100 mg/M^2 for Taxotere. In the specific Phase III clinical trial described herein conducted on patients with metastatic and/or recurrent breast cancer, there was employed 60 mg/M^2 of doxorubicin administered over the last 20 minutes of infusion of the DPPE solution.\nPatients were treated with doxorubicin (DOX) alone or a combination of doxorubicin and DPPE. […]\nThe survival time for patients was determined for those patients with metastatic breast cancer receiving no prior chemotherapy treatment in relation to those who had received prior chemotherapy treatment, and for patients that had received no previous treatment type (namely, chemotherapy, radiotherapy and/or hormone treatment) and those who had received previous treatment. The survival times were determined for patients receiving the DPPE/DOX combination and DOX alone.",
  "data": [
    {"smiles": "COc1cccc2c1C(=O)c1c(O)c3c(c(O)c1C2=O)C[C@@](O)(C(=O)CO)C[C@@H]3O[C@H]1C[C@H](N)[C@H](O)[C@H](C)O1", "note": "[DOX, doxorubicin]", "values": [
      {"measurement": "median overall survival", "setting": "patients with metastatic disease who had estrogen receptor-negative tumors, FIG. 3", "value": 9.3, "unit": "months"},
      {"measurement": "median overall survival", "setting": "patients with metastatic disease who had no previous chemotherapy, DPPE 5.3 mg/kg iv over 80 min, doxorubicin 60 mg/M^2 over last 20 min, FIG. 1", "value": 16.2, "unit": "months"},
      {"measurement": "median overall survival", "setting": "patients with metastatic disease who had no previous treatment (chemotherapy, radiotherapy and/or hormone treatment), FIG. 2", "value": 15, "unit": "months"}
    ]}
  ]
}
